Measured values taken from patent publication US7737139B2, “Sulfonic acids, their derivatives and pharmaceutical compositions containing them” (Dompe PHA.R.MA S.p.A., priority 2003, dated 2010).
Where a name gives a salt, the structure may show the parent alone.

Each compound was assayed on human PMNs (assay: IL-8 induced human PMN chemotaxis assay). Details: compounds marked * tested at c = 10^−7; human PMNs chemotaxis induced by IL-8 (100 ng/mL).
Format: cell-based

Which inhibition at 0.1 µM does the source give for `CNS(=O)(=O)/C=C/c1ccc(CC(C)C)cc1` [Compound 22, E-2-(4-isobutylphenyl)ethene-N-methyl sulfonamide] here?
Its inhibition at 0.1 µM is 41 ± 9%.

For `CNS(=O)(=O)C(C)c1ccc(CC(C)C)cc1` (racemic) [Compound 43, (±)-1-(4-isobutylphenyl)ethane-N-methyl sulfonamide], which inhibition at 0.1 µM is on record?
Its inhibition at 0.1 µM is 36 ± 15%.

`CS(=O)(=O)Nc1ccc(/C=C/S(N)(=O)=O)cc1` [Compound 17, E-2-[4-(methanesulfonylamino)phenyl] ethenesulfonamide] was tested. Which inhibition at 0.1 µM did it give?
The inhibition at 0.1 µM was 41 ± 17%.

These compounds were tested on human PMNs (assay: IL-8 induced human PMN chemotaxis assay). Details: c = 10^−8 M; human PMNs chemotaxis induced by IL-8 (100 ng/mL).
Format: cell-based
Procedure: The compounds of formula (I) were evaluated in vitro for their ability to inhibit chemotaxis of polymorphonucleate leukocytes (hereinafter referred to as PMNs) and monocytes induced by the fractions of IL-8 and GRO-α. For this purpose, in order to isolate the PMNs from heparinized human blood, taken from healthy adult volunteers, mononucleates were removed by means of sedimentation on dextran (according to the procedure disclosed by W. J. Ming et al, J. Immunol., 138, 1469, 1987) and red blood cells by a hypotonic solution. The cell vitality was calculated by exclusion with Trypan blue, whilst the ratio of the circulating polymorphonucleates was estimated on the cytocentrifugate after staining with Diff Quick.
Human recombinant IL-8 (Pepro Tech) was used as stimulating agents in the chemotaxis experiments, giving practically identical results: the lyophilized protein was dissolved in a volume of HBSS containing 0.2% bovin serum albumin (BSA) so thus to obtain a stock solution having a concentration of 10^−5 M to be diluted in HBSS to a concentration of 10^−9 M, for the chemotaxis assays.
During the chemotaxis assay (according to W. Falket et al., J. Immunol. Methods, 33, 239, 1980) PVP-free filters with a porosity of 5 μm and microchambers suitable for replication were used.
The compounds of formula (I) were evaluated at a concentration ranging between 10^−6 and 10^−10 M; for this purpose they were added, at the same concentration, both to the […] of the microchamber. Evaluation of the ability of the compounds of the invention of formula I to inhibit IL-8-induced chemotaxis of human monocytes was carried out according to the method disclosed by Van Damme J. et al. (Eur. J. Immunol., 19, 2367, 1989).
Biological results of some representative compounds in the IL-8 induced PMN chemotaxis test are reported in table II (inhibition data, C=10^−8 M).

Which inhibition at 0.01 µM does the source give for `CC(C)Cc1ccc(/C=C/S(=O)(=O)NCCCN(C)C)cc1` [Compound 18, E-2-(4-isobutylphenyl)ethene(N,N-dimethylaminopropyl) sulfonamide] here?
Its inhibition at 0.01 µM is 40 ± 1%.

With `CN(C)CCCNS(=O)(=O)/C=C/c1ccc(OS(=O)(=O)C(F)(F)F)cc1` [Compound 20, E-2-[4-(trifluoromethanesulfonyloxy)phenyl]ethene-(N,N-dimethylaminopropyl)sulfonamide] as the compound, how does the inhibition at 0.01 µM read?
The inhibition at 0.01 µM was 60 ± 1%.

For `CC(C)Cc1ccc(/C=C/S(N)(=O)=O)cc1` [Compound 14, E-2-(4-isobutylphenyl) ethenesulfonamide], which inhibition at 0.01 µM is on record?
Its inhibition at 0.01 µM is 41 ± 17%.

With `CC(C)Cc1ccc([C@H](C)S(=O)(=O)O)cc1` [Compound 2, (+)-1-(4-isobutylphenyl) ethanesulfonic acid sodium salt] as the compound, how does the inhibition at 0.01 µM read?
Its inhibition at 0.01 µM is 35 ± 7%.

Which inhibition at 0.01 µM does the source give for `CC(C)Cc1ccc(/C=C/S(=O)(=O)O)cc1` [Compound 10, E-2-(4-isobutylphenyl)ethenesulfonic acid sodium salt] here?
Its inhibition at 0.01 µM is 45 ± 4%.

`CN(C)CCCNS(=O)(=O)/C=C/c1ccc(NS(C)(=O)=O)cc1` [Compound 21, E-2-[4-(methanesulfonylamino)phenyl] ethene-(N,N-dimethylaminopropyl) sulfonamide] was tested. Which inhibition at 0.01 µM did it give?
The inhibition at 0.01 µM was 31 ± 6%.

`CC(c1cccc(C(=O)c2ccccc2)c1)S(=O)(=O)NCCCN(C)C` (racemic) [Compound 36, (±)-1-(3-benzoylphenyl)ethane-N-(N,N-dimethylaminopropyl) sulfonamide] was tested. Which inhibition at 0.01 µM did it give?
Its inhibition at 0.01 µM is 49 ± 14%.

Which inhibition at 0.01 µM does the source give for `CC(=O)c1ccc(CS(N)(=O)=O)n1C` [Compound 31, (1-methyl-5-acetylpyrrolyl)-1-methanesulfonamide] here?
Its inhibition at 0.01 µM is 39 ± 4%.

`CC(c1cccc(C(=O)c2ccccc2)c1)S(=O)(=O)O` (racemic) [Compound 8, sodium salt] was tested. Which inhibition at 0.01 µM did it give?
The inhibition at 0.01 µM was 65 ± 4%.

With `C/C(=C\S(N)(=O)=O)c1ccc(CC(C)C)cc1` [Compound 50, E-2-(4-isobutylphenyl)-2-methyl-ethenesulfonamide] as the compound, how does the inhibition at 0.01 µM read?
Its inhibition at 0.01 µM is 32 ± 1%.

With `CC(=O)c1ccc(CS(=O)(=O)O)n1C` [Compound 7, (1-methyl-5-acetylpyrrolyl)-1-methanesulfonic acid sodium salt] as the compound, how does the inhibition at 0.01 µM read?
Its inhibition at 0.01 µM is 35 ± 2%.

With `NS(=O)(=O)/C=C/c1cccc(C(=O)c2ccccc2)c1` [Compound 15, E-2-(3-benzoylphenyl) ethenesulfonamide] as the compound, how does the inhibition at 0.01 µM read?
The inhibition at 0.01 µM was 66 ± 10%.

`CC(=O)NS(=O)(=O)C(C)c1ccc(CC(C)C)cc1` (racemic) [Compound 47, (±)-1-(4-isobutylphenyl)ethane-N-acetyl sulfonamide] was tested. Which inhibition at 0.01 µM did it give?
Its inhibition at 0.01 µM is 40 ± 17%.

How did the inhibition at 0.01 µM turn out when `CC(C)Cc1ccc([C@@H](C)S(=O)(=O)O)cc1` [Compound 1, (−)-1-(4-isobutylphenyl) ethanesulfonic acid sodium salt] was run?
The inhibition at 0.01 µM was 55 ± 7%.

Which inhibition at 0.01 µM does the source give for `CC(C)C(=O)c1ccc(CS(N)(=O)=O)n1C` [Compound 30, (1-methyl-5-isobutirrylpyrrolyl)-1-methanesulfonamide] here?
The inhibition at 0.01 µM was 50 ± 1%.
